In patent publication US20260062447A1, “COMPOUNDS” (UNIVERSITY OF SOUTHAMPTON, priority 2022, published 2026):
Where a SMILES comes first, the peptide text is derived from it. [ ]: non-standard residue; d: D form. Phe(4-CF3) = N[C@@H](Cc1ccc(C(F)(F)F)cc1)C(=O)O; Phe(4-Br) = N[C@@H](Cc1ccc(Br)cc1)C(=O)O; Nle = CCCC[C@H](N)C(=O)O

How the values were obtained:
[1] = molecular target: HIF-1α PAS-B domain (Homo sapiens, UniProt Q16665); assay: Microscale thermophoresis (MST) binding to HIF-1α PAS-B domain; conditions: for binding affinity by MST, in words: compared within the derivative series or to the unsubstituted peptide
Experimental: The impact of these substitutions on the binding affinity was then assessed by MST.
An aliquot of labelled HIF-1α PAS-B was thawed on ice and diluted to 50 nM with HIF MST assay buffer, before being centrifuged at 12,000 rpm for 15 minutes. […] Samples were loaded into NanoTemper® Monolith NT.115 premium treated capillaries and measurements were carried out using a Monolith NT.115 system at 25° C. using 50% MST power and 50% LED power. Data was analysed by NanoTemper® analysis software. Binding curves were fitted using GraphPad Prism 8 software.

[2] = test system: HIF-1α nuclear localization; assay: HIF-1α immunofluorescence (nuclear localization); assay type: cell-based
Excerpt: (§1) FIG. 11—A) Structure of cyclic peptide that incorporates a coumaryl motif at the phenylalanine position CLL-Cou-VY [SEQ ID NO: 39 Cys leu leu cou val tyr]. B) MST analysis of CLL-Cou-VY. C) The peptide was seen to be internalized in HeLa cells upon visualization with PMT detection at 405 nm. […] E) HIF-1α immunofluorescence under control conditions showing that without treatment HIF-1a localizes to the nucleus.

[3] = test system: HeLa cells; assay: Cell internalization of the fluorescent peptide, PMT detection at 405 nm; assay type: cell-based
Excerpt: as §1
We therefore made a peptide with a coumaryl motif incorporated at the phenylalanine position the compound, CLL-Cou-VY, shown in FIG. 11 was seen to be internalized in HeLa cells upon visualization with PMT detection at 405 nm.

[4] = test system: HIF-1a driven transcription in U2OS HRE readout cell line; assay: U2OS HRE readout assay (EYFP expression); assay type: cell-based
[5] = molecular target: HIF-1 three-domain protein binding to FAM-HRE; assay: Fluorescence polarization assay of HIF-1 binding to FAM-HRE; assay type: biochemical; conditions: for IC50: FP assay, read-out: IC50 of inhibition of HIF DNA (FAM-HRE) binding
Experimental: HIF-1 three-domain protein was thawed on ice and diluted to 150 nM in HIF FP buffer. Compounds for analysis were serially diluted in DMSO to give 10× stocks. The compounds (10 μL, 100% DMSO) were then added to the protein (80 μL). The samples were then incubated at room temperature for 30 minutes. FAM-HRE (10 μL, 20 nM) was then added and the samples loaded into a 384 well solid black non-binding microplate (Corning, USA). The fluorescence polarization of each well was then measured using gain and focus settings optimized by the used software set to a signal of 400 mP on a control well.
An FP assay utilizing a FAM labelled HRE was used and CK-NL-F(CF3)IF(Br) assessed.
HIF-1 three-domain protein was thawed on ice and diluted to 150 nM in HIF FP buffer. Compounds for analysis were serially diluted in DMSO to give 10× stocks. The compounds (10 μl, 100% DMSO) were then added to the protein (80 μL). The samples were then incubated at room temperature for 30 minutes. FAM-HRE (10 μL, 20 nM) was then added and the samples loaded into a 384 well solid black non-binding microplate (Corning, USA). The fluorescence polarization of each well was then measured using gain and focus settings optimized by the used software set to a signal of 400 mP on a control well.

[6] = molecular target: T1, HIF-1α PAS-B domain mutant C255A (Homo sapiens, UniProt Q16665, C255A); assay: MST binding to cysteine mutant HIF-1α PAS-B C255A; conditions: site-directed mutagenesis
T1 construct: made in house
Experimental: (§2) One rationalization would be that the peptide binding is disulphide-mediated. Whilst this was thought to be unlikely as all assays were performed in the presence of the reducing agent TCEP, it was decided that the possibility would be further investigated via site-directed mutagenesis (SDM). The three cysteine residues within the HIF-1α PAS-B domain were sequentially mutated to alanine. The affinity of cyclo-CLLFVY for the resultant mutant proteins C255A, C344A and C337A was then assessed by MST.
(§3) An aliquot of labelled HIF-1α PAS-B was thawed on ice and diluted to 50 nM with HIF MST assay buffer, before being centrifuged at 12,000 rpm for 15 minutes. The compound was then serially diluted in DMSO to give 10× stocks. These were then diluted 1:5 in HIF MST assay buffer to give 2× stocks, before finally being mixed 1:1 (v/v) with the labelled protein to give a final concertation of 25 nM protein and a final DMSO content of 10%. Samples were loaded into NanoTemper® Monolith NT.115 premium treated capillaries and measurements were carried out using a Monolith NT.115 system at 25° C. using 50% MST power and 50% LED power. Data was analysed by NanoTemper® analysis software. Binding curves were fitted using GraphPad Prism 8 software.

[7] = test system: HIF-1α PAS-B domain mutant C344A; assay: MST binding to cysteine mutant HIF-1α PAS-B C344A; conditions: site-directed mutagenesis
Experimental: as §2, §3

[8] = molecular target: T2, HIF-1α PAS-B domain mutant C337A (Homo sapiens, UniProt Q16665, C337A); assay: MST binding to cysteine mutant HIF-1α PAS-B C337A; conditions: site-directed mutagenesis
T2 construct: made in house
Experimental: as §2, §3

[9] = test system: HIF-1a driven transcription in Panc HRE readout cell line; assay: Panc HRE readout cell line (EYFP expression); assay type: cell-based
[10] = Cytotox-Glo toxicity assay; assay type: cell-based; conditions: doses 50 uM
[11] = molecular target: T3, His-HIF-1α PAS-B domain with FLAG-HIF-1β PAS-B domain (Homo sapiens, UniProt Q16665); assay: ELISA of HIF-1α PAS-B / HIF-1β PAS-B heterodimerization; assay type: biochemical; conditions: read-out: IC50 of disruption of HIF-1α-HIF-1β PAS-B-PAS-B dimer formation
T3 construct: heterodimerization of His-HIF-1α PAS-B domain with FLAG-HIF-1β PAS-B domain analysed by ELISA
Experimental: FIG. 9‥Effects of (CONC) CK-n-leu-F(CF3)IF(Br) [SEQ ID NO: 40 Cys lys NL phe(CF3) ile phe(Br)] on the heterodimerization of His-HIF-1α PAS-B domain with FLAG-HIF-1β PAS-B domain analysed by ELISA.
The ability of CK-n-leu-F(CF3)IF(Br) to disrupt the HIF-1α-HIF-1β PAS-B-PAS-B PPI was then assessed via an ELISA assay.
To each well of a clear Pierce nickel coated 96-well plate (Thermo Scientific), purified Hiss-HIF-1α PAS-B protein in HIP buffer was added (25 μL, 0.1 μM), the plate was then incubated for 1 hr at RT with rocking. The wells were then washed 2× with HIF buffer (150 μL) and 1× with PBS Tween (0.05% Tween 20, 150 μL). 2% milk in PBS Tween (150 μL) was then added to each well and incubated for 1 hr at RT with rocking as a blocking step. The wells were then washed 2×PBS Tween (150 μL) and 1× with HIF buffer (150 μL). For HIF-B dimerisation a serial dilution of HIF-1β PAS-B ranging from 250 μM to 11 nM in HIF buffer (100 μL) was then added. […] The plate was then incubated at RT for 1 hr with rocking. The wells were then washed 2× with HIF buffer (150 μL) and 1× with PBS Tween (150 μL), A 1:1000 dilution of mouse anti-flag antibody in 2% milk PBS Tween (50 μL) was then added to each well and the plate incubated for a further hour at RT with rocking. […] H2SO4(aq) (2 M, 100 μL) was then added to each well and the absorbance at 450 nm determined on a BMG Clariostar plate reader.

Sequence of HIF-1α PAS-B domain (Q16665 238-349 limits assumed): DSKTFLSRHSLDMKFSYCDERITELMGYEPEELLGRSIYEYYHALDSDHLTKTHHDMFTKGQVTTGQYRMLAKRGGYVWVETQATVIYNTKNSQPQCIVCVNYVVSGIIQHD
T2 sequence (Q16665 238-349 C337A limits assumed): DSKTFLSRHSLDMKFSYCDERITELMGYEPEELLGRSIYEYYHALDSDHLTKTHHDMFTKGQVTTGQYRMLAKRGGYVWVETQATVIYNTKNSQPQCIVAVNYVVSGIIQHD
T1 sequence (Q16665 238-349 C255A limits assumed): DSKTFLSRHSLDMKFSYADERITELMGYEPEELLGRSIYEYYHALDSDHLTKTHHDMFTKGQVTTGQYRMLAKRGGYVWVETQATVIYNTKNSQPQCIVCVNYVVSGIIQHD
T3 sequence (Q16665 238-349 limits assumed): as the sequence (Q16665 238-349 limits assumed) above

In the case of `NC(CCS)C(=O)O` (centres unmarked) [homocysteine, h-cys leu leu phe val tyr], the “binding affinity by MST, in words” value [1] is reported as “comparable affinities”.
In the case of `CC(C)C[C@@H]1NC(=O)[C@H](CS)NC(=O)[C@H](Cc2ccc(O)cc2)NC(=O)[C@H](C(C)C)NC(=O)[C@H](CCc2cc(=O)oc3cc(O)ccc23)NC(=O)[C@H](CC(C)C)NC1=O` [CLL-Cou-VY, Cys Leu Leu Cou Val Tyr], the “effect on HIF-1α nuclear localization” value [2] is reported as “preventing HIF-1α nuclear localization” and the internalization in cells [3] is reported as “internalized”.
For `CCCC[C@@H]1NC(=O)[C@H](CC(C)C)NC(=O)[C@H](CS)NC(=O)[C@H](Cc2ccc(Br)cc2)NC(=O)[C@H]([C@@H](C)CC)NC(=O)[C@H](Cc2ccc(O)cc2)NC1=O` [CL-n-leu-F(CF3)IF(Br), Cys leu n-leu phe(CF3) ile phe(4-Br)] (cyclo(CL[Nle]YI[Phe(4-Br)])), the “expression of EYFP” value [4] was “inhibited the expression of EYFP”.
For `CC(C)C[C@@H]1NC(=O)[C@H](CS)NC(=O)[C@H](Cc2ccc(Br)cc2)NC(=O)[C@H](C(C)C)NC(=O)[C@H](Cc2ccc(C(F)(F)F)cc2)NC(=O)[C@H](CC(C)C)NC1=O` [CLLF(CF3)IF(Br), Cys leu leu phe(CF3) ile phe(4-Br)], the “binding affinity by MST, in words” value [1] was “best affinity” and the IC50 [5] was 11.8 ± 1.1 µM.
In the case of `CC(C)C[C@@H]1NC(=O)[C@H](CS)NC(=O)[C@H](Cc2ccc(O)cc2)NC(=O)[C@H](C(C)C)NC(=O)[C@H](Cc2ccccc2)NC(=O)[C@H](CC(C)C)NC1=O` [CLLFVY, Cys leu leu phe val tyr], the “binding activity for mutant protein C255A” value [6] is reported as “binding activity is retained”, the IC50 [5] is reported as 76.5 ± 8 µM and the “binding activity for mutant protein C344A” value [7] is reported as “binding activity is retained”. For the same compound, the “binding activity for mutant protein C337A” value [8] was “binding activity is retained”.
In the case of `CC(C)C[C@@H]1NC(=O)[C@H](CS)NC(=O)[C@H](Cc2ccc(O)cc2)NC(=O)[C@H](C(C)C)NC(=O)[C@H](Cc2ccc3ccccc3c2)NC(=O)[C@H](CC(C)C)NC1=O` [Nal, Cys leu leu Nal val tyr], the “fold improvement in affinity compared to the parent peptide CLLFVY” value ([1]; MST Kd relative to CLLFVY) is reported as 6 fold.
With `CC(C)C[C@@H]1NC(=O)[C@H](CC(C)C)NC(=O)[C@@H](CS)NC(=O)[C@H](Cc2ccc(O)cc2)NC(=O)[C@H](C(C)C)NC(=O)[C@H](Cc2ccccc2)NC1=O` [D-cysteine, d-cys leu leu phe val tyr] the “binding affinity by MST, in words” value [1] was “comparable affinities”.
For `CCCC[C@@H]1NC(=O)[C@H](CCCCN)NC(=O)[C@H](CS)NC(=O)[C@H](Cc2ccc(Br)cc2)NC(=O)[C@H]([C@@H](C)CC)NC(=O)[C@H](Cc2ccc(C(F)(F)F)cc2)NC1=O` [CK-n-leu-F(CF3)IF(Br), Cys lys n-leu phe(CF3) ile phe(4-Br)] (cyclo(CK[Nle][Phe(4-CF3)]I[Phe(4-Br)])), the “expression of EYFP” value [9] was “inhibited the expression of EYFP”, the Kd ([1]; MST, HIF-1α PAS-B domain) was 1.66 ± 0.3 µM and the toxicity [10] was “not toxic”. The “compatibility with FP assay / direct binding to FAM-HRE” value ([5]; peptide itself with FAM labelled HRE) was “bind to the FAM-HRE directly” and the IC50 [11] was 27.7 ± 14 µM.
